In series [1] the target is T1, ATP-binding cassette sub-family C member 2 (Homo sapiens, UniProt Q92887). Put plainly: (§1) TP_TRANSPORTER: Northern blot in vitro, primary hepatocytes. It counts as functional, cell-based, Hepatocyte.
In series [2] the target is T2, ATP-binding cassette sub-family C member 2 (Rattus norvegicus, UniProt Q63120). The description is as §1. It counts as functional, cell-based, Hepatocyte.
Series [3] deals with T1, ATP-binding cassette sub-family C member 2. Kind of series: (§2) TP_TRANSPORTER: Western in vitro, primary hepatocytes. It counts as functional, cell-based, Hepatocyte.
Series [4] addresses T2, ATP-binding cassette sub-family C member 2. The series is described as §2. It counts as functional, cell-based, Hepatocyte.
For series [5] the target is unchanged. Kind of series: TP_TRANSPORTER: Northern blot in vivo SD rat, liver. It counts as functional, organism-based, Sprague-Dawley.
The target of series [6] is Multidrug resistance protein 1a (Rattus norvegicus) (UniProt Q6PSM0). The description is as §1. It counts as functional, cell-based. To be noted: Hepatocyte.
Sequence of Multidrug resistance protein 1a (Rattus norvegicus) (Q6PSM0 as listed by the source): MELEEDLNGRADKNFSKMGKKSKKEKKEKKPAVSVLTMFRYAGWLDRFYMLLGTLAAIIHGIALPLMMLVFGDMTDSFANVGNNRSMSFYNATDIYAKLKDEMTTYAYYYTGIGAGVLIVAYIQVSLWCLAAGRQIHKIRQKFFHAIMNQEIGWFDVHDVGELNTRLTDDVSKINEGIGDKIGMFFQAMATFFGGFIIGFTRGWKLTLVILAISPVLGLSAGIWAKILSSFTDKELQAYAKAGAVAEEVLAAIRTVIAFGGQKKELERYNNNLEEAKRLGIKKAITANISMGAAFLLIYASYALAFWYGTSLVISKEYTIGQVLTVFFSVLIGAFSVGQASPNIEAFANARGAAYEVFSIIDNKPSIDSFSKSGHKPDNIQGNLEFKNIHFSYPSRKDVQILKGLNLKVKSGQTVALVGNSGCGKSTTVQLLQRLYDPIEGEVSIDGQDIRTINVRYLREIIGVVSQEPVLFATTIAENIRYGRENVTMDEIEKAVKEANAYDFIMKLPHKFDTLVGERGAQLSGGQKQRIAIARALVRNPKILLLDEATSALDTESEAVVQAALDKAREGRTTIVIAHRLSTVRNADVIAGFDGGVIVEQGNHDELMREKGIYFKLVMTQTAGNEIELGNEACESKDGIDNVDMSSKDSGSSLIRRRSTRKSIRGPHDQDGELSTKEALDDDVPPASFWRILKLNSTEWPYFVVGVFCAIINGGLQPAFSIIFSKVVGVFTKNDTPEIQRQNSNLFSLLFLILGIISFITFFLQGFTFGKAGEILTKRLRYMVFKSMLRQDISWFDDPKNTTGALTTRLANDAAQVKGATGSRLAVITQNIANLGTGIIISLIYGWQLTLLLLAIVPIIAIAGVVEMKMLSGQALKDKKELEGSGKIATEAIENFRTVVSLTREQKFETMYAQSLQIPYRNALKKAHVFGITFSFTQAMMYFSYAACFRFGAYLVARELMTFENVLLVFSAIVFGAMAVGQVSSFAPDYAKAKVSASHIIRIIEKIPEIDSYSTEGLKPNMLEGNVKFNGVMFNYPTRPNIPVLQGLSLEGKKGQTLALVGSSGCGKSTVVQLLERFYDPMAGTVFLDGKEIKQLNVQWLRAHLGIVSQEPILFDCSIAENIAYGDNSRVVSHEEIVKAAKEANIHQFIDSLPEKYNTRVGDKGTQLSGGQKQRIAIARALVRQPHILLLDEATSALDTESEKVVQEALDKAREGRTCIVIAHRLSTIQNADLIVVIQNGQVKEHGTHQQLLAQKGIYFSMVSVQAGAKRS

T2 sequence (Q63120 whole entry): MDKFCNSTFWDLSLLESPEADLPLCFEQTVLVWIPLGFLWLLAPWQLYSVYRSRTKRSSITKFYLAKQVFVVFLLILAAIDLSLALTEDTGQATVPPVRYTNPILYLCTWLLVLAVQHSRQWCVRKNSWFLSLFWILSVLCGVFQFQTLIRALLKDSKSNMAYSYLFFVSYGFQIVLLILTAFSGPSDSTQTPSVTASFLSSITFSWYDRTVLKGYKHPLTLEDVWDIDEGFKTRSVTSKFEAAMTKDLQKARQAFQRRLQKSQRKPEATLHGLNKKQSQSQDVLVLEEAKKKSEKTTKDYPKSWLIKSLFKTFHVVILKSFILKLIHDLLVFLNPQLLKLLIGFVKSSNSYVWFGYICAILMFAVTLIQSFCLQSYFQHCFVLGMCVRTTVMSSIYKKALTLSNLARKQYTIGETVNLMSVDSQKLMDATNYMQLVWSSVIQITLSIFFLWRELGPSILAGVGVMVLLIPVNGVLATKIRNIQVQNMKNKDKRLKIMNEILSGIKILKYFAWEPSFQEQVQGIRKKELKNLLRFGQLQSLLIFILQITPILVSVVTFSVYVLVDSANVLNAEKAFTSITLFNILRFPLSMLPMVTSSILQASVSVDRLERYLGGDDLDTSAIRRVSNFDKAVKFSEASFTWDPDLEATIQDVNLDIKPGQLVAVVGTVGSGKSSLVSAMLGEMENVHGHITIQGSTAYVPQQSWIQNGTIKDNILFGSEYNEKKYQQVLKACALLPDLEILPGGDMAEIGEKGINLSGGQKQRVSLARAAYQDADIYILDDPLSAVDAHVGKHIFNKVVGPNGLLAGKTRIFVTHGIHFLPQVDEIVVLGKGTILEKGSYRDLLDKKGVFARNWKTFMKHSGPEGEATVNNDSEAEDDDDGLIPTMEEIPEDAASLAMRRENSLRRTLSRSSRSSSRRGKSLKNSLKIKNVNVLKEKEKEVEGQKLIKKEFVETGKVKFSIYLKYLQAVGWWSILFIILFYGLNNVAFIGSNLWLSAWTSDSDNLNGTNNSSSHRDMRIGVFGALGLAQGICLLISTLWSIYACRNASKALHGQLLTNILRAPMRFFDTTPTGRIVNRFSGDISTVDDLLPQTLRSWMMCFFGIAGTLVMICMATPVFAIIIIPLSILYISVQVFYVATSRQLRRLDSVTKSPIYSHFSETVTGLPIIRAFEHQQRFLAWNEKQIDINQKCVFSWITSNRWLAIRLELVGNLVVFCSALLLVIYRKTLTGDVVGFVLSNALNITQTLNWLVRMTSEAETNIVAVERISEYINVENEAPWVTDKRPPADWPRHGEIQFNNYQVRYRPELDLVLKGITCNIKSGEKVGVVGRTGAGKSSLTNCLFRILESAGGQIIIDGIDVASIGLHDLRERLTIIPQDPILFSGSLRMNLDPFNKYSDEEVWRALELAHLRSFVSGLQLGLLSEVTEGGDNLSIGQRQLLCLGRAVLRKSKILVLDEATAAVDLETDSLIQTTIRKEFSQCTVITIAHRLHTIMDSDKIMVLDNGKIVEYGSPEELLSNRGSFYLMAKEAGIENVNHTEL
T1 sequence (Q92887 whole entry): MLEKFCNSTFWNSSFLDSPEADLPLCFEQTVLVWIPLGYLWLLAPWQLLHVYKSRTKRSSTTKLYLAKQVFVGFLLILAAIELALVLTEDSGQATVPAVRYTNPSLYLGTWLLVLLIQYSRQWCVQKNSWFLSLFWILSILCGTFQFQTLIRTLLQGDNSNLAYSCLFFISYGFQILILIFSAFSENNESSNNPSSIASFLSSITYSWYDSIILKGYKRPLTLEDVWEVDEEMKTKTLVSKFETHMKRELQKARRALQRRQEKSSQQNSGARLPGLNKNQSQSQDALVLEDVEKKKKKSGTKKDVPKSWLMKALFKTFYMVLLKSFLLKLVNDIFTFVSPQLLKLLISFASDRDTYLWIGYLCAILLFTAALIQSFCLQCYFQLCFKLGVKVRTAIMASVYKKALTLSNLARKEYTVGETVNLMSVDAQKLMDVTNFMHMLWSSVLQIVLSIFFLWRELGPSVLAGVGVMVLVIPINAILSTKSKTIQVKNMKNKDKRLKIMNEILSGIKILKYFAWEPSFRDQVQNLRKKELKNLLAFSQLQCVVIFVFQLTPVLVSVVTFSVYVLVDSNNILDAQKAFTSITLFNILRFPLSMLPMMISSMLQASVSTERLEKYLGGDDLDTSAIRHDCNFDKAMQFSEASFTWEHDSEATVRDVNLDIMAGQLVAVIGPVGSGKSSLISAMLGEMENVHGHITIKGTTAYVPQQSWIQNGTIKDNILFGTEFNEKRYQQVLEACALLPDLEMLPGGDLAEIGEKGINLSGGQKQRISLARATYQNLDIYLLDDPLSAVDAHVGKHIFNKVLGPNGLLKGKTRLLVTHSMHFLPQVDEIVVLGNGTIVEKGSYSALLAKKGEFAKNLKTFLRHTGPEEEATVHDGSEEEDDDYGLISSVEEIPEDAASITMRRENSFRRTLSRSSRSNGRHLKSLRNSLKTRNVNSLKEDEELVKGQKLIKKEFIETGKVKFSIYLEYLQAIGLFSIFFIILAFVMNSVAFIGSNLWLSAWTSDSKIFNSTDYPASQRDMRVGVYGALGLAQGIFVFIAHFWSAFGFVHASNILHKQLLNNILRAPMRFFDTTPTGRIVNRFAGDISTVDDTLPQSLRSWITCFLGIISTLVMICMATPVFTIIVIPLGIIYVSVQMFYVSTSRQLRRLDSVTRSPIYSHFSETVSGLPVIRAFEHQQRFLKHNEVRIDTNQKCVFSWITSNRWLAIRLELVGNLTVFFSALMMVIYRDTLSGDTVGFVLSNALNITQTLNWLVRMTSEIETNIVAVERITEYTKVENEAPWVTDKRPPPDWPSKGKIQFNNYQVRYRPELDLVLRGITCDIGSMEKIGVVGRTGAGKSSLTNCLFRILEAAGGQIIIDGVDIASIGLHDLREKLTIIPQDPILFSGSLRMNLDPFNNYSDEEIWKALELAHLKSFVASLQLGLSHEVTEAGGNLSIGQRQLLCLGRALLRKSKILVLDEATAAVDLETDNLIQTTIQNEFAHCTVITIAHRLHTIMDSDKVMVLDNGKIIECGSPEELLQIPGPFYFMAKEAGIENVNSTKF

`CCC1(c2ccccc2)C(=O)NC(=O)NC1=O` [PHENOBARBITAL]: the Activity entry was “inducer [+]” in series [1]; “inducer [+]” in series [2]; “inducer [+]” in series [3]; “inducer [+]” in series [4]; “is not an inducer [-]” in series [5]; “is not an inducer [-]” in series [6].

For the origin of these results see ChEMBL document CHEMBL2073981, “Differential regulation of multidrug resistance-associated protein 2 (MRP2) and cytochromes P450 2B1/2 and 3A1/2 in phenobarbital-treated hepatocytes” (Biochem Pharmacol, 2002).
